From patent publication US10130096B2, “Method for protecting useful plants or plant propagation material” (SYNGENTA PARTICIPATIONS AG, priority 2011, dated 2018)

Tested on: Botryotinia fuckeliana (Botrytis cinerea)
Assay: Botryotinia fuckeliana liquid culture growth inhibition
Type: cell-based
Details: photometric, 3-4 days after application, read-out: control on Botryotinia fuckeliana
Procedure: Conidia of the fungus from cryogenic storage are directly mixed into nutrient broth (Vogels broth). After placing a (DMSO) solution of test compound into a microtiter plate (96-well format), the nutrient broth containing the fungal spores is added.

SMILES	inhibition of growth at 200 ppm
N[C@H](COB1OCc2cc(Cl)ccc21)c1ccccc1 [Compound 25, (S)-2-(5-Chloro-3H-benzo[c][1,2]oxaborol-1-yloxy)-1-phenyl-ethylamine]	≥ 80%
CC(CN)OB1OCc2cc(Cl)ccc21 (stereo not shown) [Compound 27, 2-(5-Chloro-3H-benzo[c][1,2]oxaborol-1-yloxy)-propylamine]	≥ 80%
CC(N)COB1OCc2cc(Cl)ccc21 (stereo not shown) [Compound 28, 2-(5-Chloro-3H-benzo[c][1,2]oxaborol-1-yloxy)-1-methyl-ethylamine]	≥ 80%
c1ccc2c(c1)COB2Oc1cccc2cccnc12 [Compound 31, 8-(3H-Benzo[c][1,2]oxaborol-1-yloxy)-quinoline]	≥ 80%
CC(C)(N)COB1OCc2ccccc21 [Compound 32, 2-(3H-Benzo[c][1,2]oxaborol-1-yloxy)-1,1-dimethyl-ethylamine]	≥ 80%
NCCOB1OCc2cc(Cl)ccc21 [Compound 36, 2-(5-Chloro-3H-benzo[c][1,2]oxaborol-1-yloxy)-ethylamine]	≥ 80%

Tested on: Thanatephorus cucumeris (Rhizoctonia solani)
Assay: Thanatephorus cucumeris liquid culture growth inhibition
Type: cell-based
Details: photometric, 3-4 days after application, read-out: control on Thanatephorus cucumeris
Procedure: Mycelia fragments of a newly grown liquid culture of the fungus are directly mixed into nutrient broth (PDB potato dextrose broth). After placing a (DMSO) solution of the test compounds into a microtiter plate (96-well format), the nutrient broth containing the fungal material is added. The test plates are incubated at 24° C. and the inhibition of growth is determined photometrically 3-4 days after application.

SMILES	inhibition of growth at 200 ppm
CC(CN)OB1OCc2cc(Cl)ccc21 (stereo not shown) [Compound 27, 2-(5-Chloro-3H-benzo[c][1,2]oxaborol-1-yloxy)-propylamine]	≥ 80%
CC(N)COB1OCc2cc(Cl)ccc21 (stereo not shown) [Compound 28, 2-(5-Chloro-3H-benzo[c][1,2]oxaborol-1-yloxy)-1-methyl-ethylamine]	≥ 80%
NCCOB1OCc2cc(Cl)ccc21 [Compound 36, 2-(5-Chloro-3H-benzo[c][1,2]oxaborol-1-yloxy)-ethylamine]	≥ 80%

Tested on: Mycosphaerella arachidis (Cercospora arachidicola)
Assay: Mycosphaerella arachidis liquid culture growth inhibition
Type: cell-based
Details: photometric, 4-5 days after application, read-out: control on Mycosphaerella arachidis
Procedure: (§1) Conidia of the fungus from cryogenic storage are directly mixed into nutrient broth (PDB potato dextrose broth). After placing a (DMSO) solution of test compound into a microtiter plate (96-well format), the nutrient broth containing the fungal spores is added.

SMILES	inhibition of growth at 200 ppm
NCCOB1OCc2c1ccc1ccccc21 [Compound 18, 2-(1H-2-Oxa-3-bora-cyclopenta[a]naphthalen-3-yloxy)-ethylamine]	≥ 80%
OB1OC(c2ccccc2)c2ccccc21 (stereo not shown) [Compound 19, 3-Phenyl-3H-benzo[c][1,2]oxaborol-1-ol]	≥ 80%
N[C@H](COB1OCc2cc(Cl)ccc21)c1ccccc1 [Compound 25, (S)-2-(5-Chloro-3H-benzo[c][1,2]oxaborol-1-yloxy)-1-phenyl-ethylamine]	≥ 80%
CC(CN)OB1OCc2cc(Cl)ccc21 (stereo not shown) [Compound 27, 2-(5-Chloro-3H-benzo[c][1,2]oxaborol-1-yloxy)-propylamine]	≥ 80%
CC(N)COB1OCc2cc(Cl)ccc21 (stereo not shown) [Compound 28, 2-(5-Chloro-3H-benzo[c][1,2]oxaborol-1-yloxy)-1-methyl-ethylamine]	≥ 80%
c1ccc2c(c1)COB2Oc1cccc2cccnc12 [Compound 31, 8-(3H-Benzo[c][1,2]oxaborol-1-yloxy)-quinoline]	≥ 80%
CC(C)(N)COB1OCc2ccccc21 [Compound 32, 2-(3H-Benzo[c][1,2]oxaborol-1-yloxy)-1,1-dimethyl-ethylamine]	≥ 80%
CC(C)(C)c1ccc2c(c1)COB2OCCN [Compound 33, 2-(5-tert-Butyl-3H-benzo[c][1,2]oxaborol-1-yloxy)-ethylamine]	≥ 80%
CC(C)(C)c1ccc2c(c1)COB2O [Compound 34, 5-tert-Butyl-3H-benzo[c][1,2]oxaborol-1-ol]	≥ 80%
NCCOB1OCc2cc(Oc3ccccc3)ccc21 [Compound 35, 2-(5-Phenoxy-3H-benzo[c][1,2]oxaborol-1-yloxy)-ethylamine]	≥ 80%
NCCOB1OCc2cc(Cl)ccc21 [Compound 36, 2-(5-Chloro-3H-benzo[c][1,2]oxaborol-1-yloxy)-ethylamine]	≥ 80%

Tested on: Monographella nivalis (Microdochium nivale)
Assay: Monographella nivalis liquid culture growth inhibition
Type: cell-based
Details: photometric, 4-5 days after application, read-out: control on Monographella nivalis
Procedure: (§2) Conidia of the fungus from cryogenic storage are directly mixed into nutrient broth (PDB potato dextrose broth). After placing a (DMSO) solution of test compound into a microtiter plate (96-well format), the nutrient broth containing the fungal spores is added. The test plates are incubated at 24° C. and the inhibition of growth is determined photometrically 4-5 days after application.

SMILES	inhibition of growth at 200 ppm
NCCOB1OCc2c1ccc1ccccc21 [Compound 18, 2-(1H-2-Oxa-3-bora-cyclopenta[a]naphthalen-3-yloxy)-ethylamine]	≥ 80%
OB1OC(c2ccccc2)c2ccccc21 (stereo not shown) [Compound 19, 3-Phenyl-3H-benzo[c][1,2]oxaborol-1-ol]	≥ 80%
N[C@H](COB1OCc2cc(Cl)ccc21)c1ccccc1 [Compound 25, (S)-2-(5-Chloro-3H-benzo[c][1,2]oxaborol-1-yloxy)-1-phenyl-ethylamine]	≥ 80%
CC(CN)OB1OCc2cc(Cl)ccc21 (stereo not shown) [Compound 27, 2-(5-Chloro-3H-benzo[c][1,2]oxaborol-1-yloxy)-propylamine]	≥ 80%
CC(N)COB1OCc2cc(Cl)ccc21 (stereo not shown) [Compound 28, 2-(5-Chloro-3H-benzo[c][1,2]oxaborol-1-yloxy)-1-methyl-ethylamine]	≥ 80%
c1ccc2c(c1)COB2Oc1cccc2cccnc12 [Compound 31, 8-(3H-Benzo[c][1,2]oxaborol-1-yloxy)-quinoline]	≥ 80%
CC(C)(N)COB1OCc2ccccc21 [Compound 32, 2-(3H-Benzo[c][1,2]oxaborol-1-yloxy)-1,1-dimethyl-ethylamine]	≥ 80%
CC(C)(C)c1ccc2c(c1)COB2O [Compound 34, 5-tert-Butyl-3H-benzo[c][1,2]oxaborol-1-ol]	≥ 80%
NCCOB1OCc2cc(Oc3ccccc3)ccc21 [Compound 35, 2-(5-Phenoxy-3H-benzo[c][1,2]oxaborol-1-yloxy)-ethylamine]	≥ 80%
NCCOB1OCc2cc(Cl)ccc21 [Compound 36, 2-(5-Chloro-3H-benzo[c][1,2]oxaborol-1-yloxy)-ethylamine]	≥ 80%

Tested on: Alternaria solani
Assay: Alternaria solani on tomato plants
Type: in vivo
Details: 4-week old tomato plants cv. Roter Gnom, spray, inoculated two days after application
Procedure: 4-week old tomato plants cv. Roter Gnom are sprayed in a spray chamber with the formulated test compound diluted in water. The test plants are inoculated by spraying them with a spore suspension two days after application. The inoculated test plants are incubated at 22/18° C. (day/night) and 95% rh in a greenhouse and the percentage leaf area covered by disease is assessed when an appropriate level of disease appears on untreated check plants (5-7 days after application).

SMILES	pest or weed control at 60 ppm
NCCOB1OCc2c1ccc1ccccc21 [Compound 18, 2-(1H-2-Oxa-3-bora-cyclopenta[a]naphthalen-3-yloxy)-ethylamine]	≥ 60%
CC(CN)OB1OCc2cc(Cl)ccc21 (stereo not shown) [Compound 27, 2-(5-Chloro-3H-benzo[c][1,2]oxaborol-1-yloxy)-propylamine]	≥ 60%
CC(N)COB1OCc2cc(Cl)ccc21 (stereo not shown) [Compound 28, 2-(5-Chloro-3H-benzo[c][1,2]oxaborol-1-yloxy)-1-methyl-ethylamine]	≥ 60%

Tested on: Fusarium culmorum
Assay: Fusarium culmorum liquid culture growth inhibition
Type: cell-based
Details: photometric, 3-4 days after application, read-out: control on Fusarium culmorum
Procedure: as §2, with “3-4” for “4-5”

SMILES	inhibition of growth at 200 ppm
NCCOB1OCc2c1ccc1ccccc21 [Compound 18, 2-(1H-2-Oxa-3-bora-cyclopenta[a]naphthalen-3-yloxy)-ethylamine]	≥ 80%
N[C@H](COB1OCc2cc(Cl)ccc21)c1ccccc1 [Compound 25, (S)-2-(5-Chloro-3H-benzo[c][1,2]oxaborol-1-yloxy)-1-phenyl-ethylamine]	≥ 80%
CC(CN)OB1OCc2cc(Cl)ccc21 (stereo not shown) [Compound 27, 2-(5-Chloro-3H-benzo[c][1,2]oxaborol-1-yloxy)-propylamine]	≥ 80%
CC(N)COB1OCc2cc(Cl)ccc21 (stereo not shown) [Compound 28, 2-(5-Chloro-3H-benzo[c][1,2]oxaborol-1-yloxy)-1-methyl-ethylamine]	≥ 80%
c1ccc2c(c1)COB2Oc1cccc2cccnc12 [Compound 31, 8-(3H-Benzo[c][1,2]oxaborol-1-yloxy)-quinoline]	≥ 80%
CC(C)(N)COB1OCc2ccccc21 [Compound 32, 2-(3H-Benzo[c][1,2]oxaborol-1-yloxy)-1,1-dimethyl-ethylamine]	≥ 80%
NCCOB1OCc2cc(Cl)ccc21 [Compound 36, 2-(5-Chloro-3H-benzo[c][1,2]oxaborol-1-yloxy)-ethylamine]	≥ 80%

Tested on: Pythium ultimum
Assay: Pythium ultimum liquid culture growth inhibition
Type: cell-based
Details: Globisporangium ultimum, photometric, 2-3 days after application, read-out: control on Pythium ultimum
Procedure: as §1, with “Mycelia fragments and oospores of a newly grown liquid culture” for “Conidia”, “fungus” for “fungus from cryogenic storage”, “mycelia/spore mixture” for “spores”

SMILES	inhibition of growth at 200 ppm
NCCOB1OCc2c1ccc1ccccc21 [Compound 18, 2-(1H-2-Oxa-3-bora-cyclopenta[a]naphthalen-3-yloxy)-ethylamine]	≥ 80%
OB1OC(c2ccccc2)c2ccccc21 (stereo not shown) [Compound 19, 3-Phenyl-3H-benzo[c][1,2]oxaborol-1-ol]	≥ 80%
N[C@H](COB1OCc2cc(Cl)ccc21)c1ccccc1 [Compound 25, (S)-2-(5-Chloro-3H-benzo[c][1,2]oxaborol-1-yloxy)-1-phenyl-ethylamine]	≥ 80%
CC(CN)OB1OCc2cc(Cl)ccc21 (stereo not shown) [Compound 27, 2-(5-Chloro-3H-benzo[c][1,2]oxaborol-1-yloxy)-propylamine]	≥ 80%
CC(N)COB1OCc2cc(Cl)ccc21 (stereo not shown) [Compound 28, 2-(5-Chloro-3H-benzo[c][1,2]oxaborol-1-yloxy)-1-methyl-ethylamine]	≥ 80%
c1ccc2c(c1)COB2Oc1cccc2cccnc12 [Compound 31, 8-(3H-Benzo[c][1,2]oxaborol-1-yloxy)-quinoline]	≥ 80%
CC(C)(N)COB1OCc2ccccc21 [Compound 32, 2-(3H-Benzo[c][1,2]oxaborol-1-yloxy)-1,1-dimethyl-ethylamine]	≥ 80%
NCCOB1OCc2cc(Cl)ccc21 [Compound 36, 2-(5-Chloro-3H-benzo[c][1,2]oxaborol-1-yloxy)-ethylamine]	≥ 80%

Tested on: Glomerella lagenarium (Colletotrichum lagenarium)
Assay: Glomerella lagenarium liquid culture growth inhibition
Type: cell-based
Details: Colletotrichum orbiculare, photometric, 3-4 days after application, read-out: control on Glomerella lagenarium
Procedure: as §1

SMILES	inhibition of growth at 200 ppm
NCCOB1OCc2c1ccc1ccccc21 [Compound 18, 2-(1H-2-Oxa-3-bora-cyclopenta[a]naphthalen-3-yloxy)-ethylamine]	≥ 80%
OB1OC(c2ccccc2)c2ccccc21 (stereo not shown) [Compound 19, 3-Phenyl-3H-benzo[c][1,2]oxaborol-1-ol]	≥ 80%
N[C@H](COB1OCc2cc(Cl)ccc21)c1ccccc1 [Compound 25, (S)-2-(5-Chloro-3H-benzo[c][1,2]oxaborol-1-yloxy)-1-phenyl-ethylamine]	≥ 80%
CC(CN)OB1OCc2cc(Cl)ccc21 (stereo not shown) [Compound 27, 2-(5-Chloro-3H-benzo[c][1,2]oxaborol-1-yloxy)-propylamine]	≥ 80%
CC(N)COB1OCc2cc(Cl)ccc21 (stereo not shown) [Compound 28, 2-(5-Chloro-3H-benzo[c][1,2]oxaborol-1-yloxy)-1-methyl-ethylamine]	≥ 80%
c1ccc2c(c1)COB2Oc1cccc2cccnc12 [Compound 31, 8-(3H-Benzo[c][1,2]oxaborol-1-yloxy)-quinoline]	≥ 80%
CC(C)(N)COB1OCc2ccccc21 [Compound 32, 2-(3H-Benzo[c][1,2]oxaborol-1-yloxy)-1,1-dimethyl-ethylamine]	≥ 80%
CC(C)(C)c1ccc2c(c1)COB2O [Compound 34, 5-tert-Butyl-3H-benzo[c][1,2]oxaborol-1-ol]	≥ 80%
NCCOB1OCc2cc(Oc3ccccc3)ccc21 [Compound 35, 2-(5-Phenoxy-3H-benzo[c][1,2]oxaborol-1-yloxy)-ethylamine]	≥ 80%
NCCOB1OCc2cc(Cl)ccc21 [Compound 36, 2-(5-Chloro-3H-benzo[c][1,2]oxaborol-1-yloxy)-ethylamine]	≥ 80%
